Counter-ions that a name gives are not always drawn.
Columns and labels:
[1] = tested on: MRSA strain LAC biofilms; experiment: MRSA biofilm assay with antibiotics plus PCCA and ultrasound (US-PCCA), survivors enumerated by plating; assay type: cell-based, S. aureus; conditions: for enhancement of tobramycin efficacy in the presence of PCCAs / increase in killing of biofilm-associated cells by US-PCCA: 30 s ultrasound; for enhancement of tobramycin efficacy in the presence of PCCAs: 20% duty cycle, FIG. 2B; for increase in killing of biofilm-associated cells by US-PCCA: vs antibiotic alone, 10% duty cycle, FIG. 2C
Procedure: Next, we tested the ability of 30 second (s) US-PCCA treatment to potentiate tobramycin efficacy. […] We hypothesized that US-PCCA might improve tobramycin penetration into biofilms and increase its efficacy. Mature biofilms were washed and transferred to a custom-built temperature-controlled 37° C. water bath alignment setup (FIG. 1B). Tobramycin and PCCAs were added and ultrasound applied at a range of rarefactional pressures (300-1200 kPa).
(§1) MRSA strain LAC biofilms were cultured overnight in brain-heart infusion (BHI) media in 12-well (FIGS. 2A and 2B) or 24-well (FIG. 2C) tissue culture treated plates. Biofilms were washed and treated with antibiotics. Where indicated, plates were transferred to a custom-built temperature-controlled 37° C. water bath alignment setup. PCCA were added and 30 s ultrasound exposure was applied at indicated pressures and 20% duty cycle (FIG. 2B) or 10% duty cycle (FIG. 2C). After 24 hours, biofilms were washed, sonicated for disruption and surviving cells were enumerated by serial dilution plating. Survivors were presented as log10 CFU/ml. The averages of n=3 biologically independent samples are shown. The error bars represent the standard deviation. Statistical significance was determined using a one-way analysis of variance (ANOVA) with Dunnett's (FIG. 2A) or Sidak's multiple comparison test (FIGS. 2B and 2C). **, ***, **** denotes P<0.005, P<0.0005, P<0.0001, respectively. LEV, levofloxacin; GENT, gentamicin; TOB, tobramycin; MUP, mupirocin; VAN, vancomycin; LIN, linezolid, RIF, 10 μg/ml rifampicin; ns, not significant; US-PCCA, ultrasound-stimulated phase change contrast agents.
MRSA strain LAC biofilms were cultured overnight in brain-heart infusion (BHI) media in 24-well tissue culture treated plates. Biofilms were washed and treated with antibiotics and transferred to a custom-built temperature-controlled 37° C. water bath alignment setup. PCCAs were added and 30 s ultrasound exposure was applied at 300 kPa or 600 kPa (FIG. 3B and 3C) and 10% duty cycle. After 24 h, biofilms were washed, sonicated for disruption and surviving cells were enumerated by serial dilution plating (FIG. 3A) or stained with crystal violet (FIG. 3B). The averages of n=6 biologically independent samples are shown. The error bars represent the standard deviation. Statistical significance was determined using a one-way analysis of variance (ANOVA) with Dunnett's multiple comparison test (a) or multiple unpaired t-test (2-tailed) (FIG. 3C). *, **, **** denotes P<0.05, P<0.005, P<0.0001, respectively. TOB, 58 μg/ml tobramycin; RL, 30 μg/ml rhamnolipids; DAP, 100 μg/ml daptomycin; LIN, 15 μg/ml linezolid; RIF, 10 μg/ml rifampicin; ADEP, 5 μg/ml acyldepsipeptide; ns, not significant; US-PCCA, ultrasound-stimulated phase change contrast agents.
Biofilm assays were performed using the USA300 MRSA strain LAC. It is a highly characterized community-acquired MRSA (CA-MRSA) strain isolated in 2002 from an abscess of an inmate in Los Angeles County jail in California^67. LAC was cultured overnight (18 h) in brain heart infusion (BHI) media (Oxoid) in biological triplicates.

[2] = tested on: MRSA biofilms (USA300 LAC); experiment: MRSA biofilm assay, antibiotics alone, survivors enumerated by plating; assay type: cell-based, S. aureus; conditions: antibiotic alone at clinically achievable concentration (Cmax), 24 hours of drug treatment of mature biofilm, FIG. 2A
Procedure: Antibiotics were chosen based on clinical relevance or previously reported anti-biofilm efficacy in vitro. Mature MRSA biofilms (USA300 LAC) were cultured for 24 hours in tissue culture treated plates before the addition of antibiotics. Following 24 hours of drug treatment, biofilms were washed, and survivors were enumerated by plating.
as §1
Biofilm assays were performed using the USA300 MRSA strain LAC. It is a highly characterized community-acquired MRSA (CA-MRSA) strain isolated in 2002 from an abscess of an inmate in Los Angeles County jail in California^67. LAC was cultured overnight (18 h) in brain heart infusion (BHI) media (Oxoid) in biological triplicates. Each culture was diluted 1:150 in fresh media and 2 or 3 ml was added to the wells of 24-well or 12-well tissue culture treated plates (Costar), respectively. Biofilms were covered with Breathe-Easier sealing strips (Sigma) and incubated at 37° C. for 24 h. Biofilms were carefully washed twice with PBS and fresh BHI media containing antibiotics was added. Biofilms were covered and incubated at 37° C. for 24 h. Biofilms were carefully washed twice with PBS before dispersal in a sonicating water bath (5 min) and vigorous pipetting. Surviving cells were enumerated by serial dilution and plating. […] For daptomycin activity, the media was supplemented with 50 mg/L of Ca^2+ ions. Where indicated tobramycin was supplemented with 30 μg/ml rhamnolipids^22 (50/50 mix of mono- and di-rhamnolipids, Sigma). Where indicated biofilms were treated with PCCA and ultrasound. For crystal violet staining, biofilms were carefully washed twice with PBS, and dried in a 65° C. oven for 1 h. Biofilms were stained with 1 ml 0.4% crystal violet for 5 min, and washed 3× with PBS. Wells were photographed, and stain was solubilized with 2 ml 5% acetic acid and absorbance measured at 570 nm.

Molecule	reduction in surviving biofilm cells [2]	further results
CCCCCC/C=C\CCCCCCCC(=O)O [Palmitoleic acid, palmitoleic acid]	–	vancomycin killing of biofilms ([1]; 50 μg/ml vancomycin, 30 μg/ml palmitoleic acid, with US-PCCA (30 s, 1 MHz, 600 kPa, 10% duty cycle), FIG. 12): drastically improves vancomycin killing
NC[C@H]1O[C@H](O[C@H]2[C@H](O)[C@@H](O[C@H]3O[C@H](CO)[C@@H](O)[C@H](N)[C@H]3O)[C@H](N)C[C@@H]2N)[C@H](N)C[C@@H]1O [Tobramycin, tobramycin]	significant reduction	enhancement of tobramycin efficacy in the presence of PCCAs ([1]; 300 kPa): significantly enhanced; enhancement of tobramycin efficacy in the presence of PCCAs ([1]; 600 kPa): significantly enhanced; enhancement of tobramycin efficacy in the presence of PCCAs ([1]; 1200 kPa): significantly enhanced
C[C@H]1COc2c(N3CCN(C)CC3)c(F)cc3c(=O)c(C(=O)O)cn1c23 [levofloxacin]	no efficacy	–
CC(=O)NC[C@H]1CN(c2ccc(N3CCOCC3)c(F)c2)C(=O)O1 [linezolid]	significant reduction	–
C/C(=C\C(=O)OCCCCCCCCC(=O)O)C[C@@H]1OC[C@H](C[C@@H]2O[C@H]2[C@@H](C)[C@H](C)O)[C@@H](O)[C@H]1O [mupirocin]	significant reduction	increase in killing of biofilm-associated cells by US-PCCA [1]: 41%
CN[C@H](CC(C)C)C(=O)N[C@H]1C(=O)N[C@@H](CC(N)=O)C(=O)N[C@H]2C(=O)N[C@H]3C(=O)N[C@H](C(=O)N[C@H](C(=O)O)c4cc(O)cc(O)c4-c4cc3ccc4O)[C@H](O)c3ccc(c(Cl)c3)Oc3cc2cc(c3O[C@@H]2O[C@H](CO)[C@@H](O)[C@H](O)[C@H]2O[C@H]2C[C@](C)(N)[C@H](O)[C@H](C)O2)Oc2ccc(cc2Cl)[C@H]1O [vancomycin, vancomycin hydrochloride]	significant reduction	increase in killing of biofilm-associated cells by US-PCCA [1]: 93%
gentamicin	no efficacy	–

From US20230173070A1, “METHODS AND SYSTEMS FOR ENHANCING DELIVERY OF THERAPEUTIC AGENTS TO BIOFILMS USING LOW BOILING POINT PHASE CHANGE CONTRAST AGENTS” (The University of North Carolina at Chapel Hill, priority 2020, published 2023)
